Measurements taken from the kinase profiling compilation of Christmann-Franck et al. (2016).

Columns and labels:
Assay in all cases: KINOMEscan competition binding
Settings in all cases: compound 10.0 µM; call rule not given here
MAP4K5 (human) = MAP4K5 (human) (UniProt Q9Y4K4)
STK16 (human) = STK16 (human) (UniProt O75716)
TNNI3K (human) = TNNI3K (human) (UniProt Q59H18)
[1] = molecular target: TYK2 JH1 catalytic (human) (UniProt P29597)
BRAF (human) = BRAF (human) (UniProt P15056)
PKN2 (human) = PKN2 (human) (UniProt Q16513)
FER (human) = FER (human) (UniProt P16591)
RET (human) = RET (human) (UniProt P07949)
KIT (human) = KIT (human) (UniProt P10721)
CSNK1G1 (human) = CSNK1G1 (human) (UniProt Q9HCP0)
PDGFRA (human) = PDGFRA (human) (UniProt P16234)
MAP3K11 (human) = MAP3K11 (human) (UniProt Q16584)
TTK (human) = TTK (human) (UniProt P33981)
ITK (human) = ITK (human) (UniProt Q08881)
STK17B (human) = STK17B (human) (UniProt O94768)
FRK (human) = FRK (human) (UniProt P42685)
STK24 (human) = STK24 (human) (UniProt Q9Y6E0)
AAK1 (human) = AAK1 (human) (UniProt Q2M2I8)
NTRK3 (human) = NTRK3 (human) (UniProt Q16288)
NLK (human) = NLK (human) (UniProt Q9UBE8)
MAPK8 (human) = MAPK8 (human) (UniProt P45983)
AURKB (human) = AURKB (human) (UniProt Q96GD4)
FGR (human) = FGR (human) (UniProt P09769)
SYK (human) = SYK (human) (UniProt P43405)
EPHA1 (human) = EPHA1 (human) (UniProt P21709)
CAMK2A (human) = CAMK2A (human) (UniProt Q9UQM7)
SLK (human) = SLK (human) (UniProt Q9H2G2)
BLK (human) = BLK (human) (UniProt P51451)
EPHA5 (human) = EPHA5 (human) (UniProt P54756)
FLT3 (human) = FLT3 (human) (UniProt P36888)
PLK4 (human) = PLK4 (human) (UniProt O00444)
MST4 (human) = MST4 (human) (UniProt Q9P289)
BMP2K (human) = BMP2K (human) (UniProt Q9NSY1)
PDPK1 (human) = PDPK1 (human) (UniProt O15530)
EPHB1 (human) = EPHB1 (human) (UniProt P54762)
MARK2 (human) = MARK2 (human) (UniProt Q7KZI7)
ACVR1 (human) = ACVR1 (human) (UniProt Q04771)
ABL1 (human) = ABL1 (human) (UniProt P00519)
ACVR2A (human) = ACVR2A (human) (UniProt P27037)
ABL2 (human) = ABL2 (human) (UniProt P42684)
CSNK1A1L (human) = CSNK1A1L (human) (UniProt Q8N752)

Sequence of STK24 (human) (Q9Y6E0 whole entry, looked up): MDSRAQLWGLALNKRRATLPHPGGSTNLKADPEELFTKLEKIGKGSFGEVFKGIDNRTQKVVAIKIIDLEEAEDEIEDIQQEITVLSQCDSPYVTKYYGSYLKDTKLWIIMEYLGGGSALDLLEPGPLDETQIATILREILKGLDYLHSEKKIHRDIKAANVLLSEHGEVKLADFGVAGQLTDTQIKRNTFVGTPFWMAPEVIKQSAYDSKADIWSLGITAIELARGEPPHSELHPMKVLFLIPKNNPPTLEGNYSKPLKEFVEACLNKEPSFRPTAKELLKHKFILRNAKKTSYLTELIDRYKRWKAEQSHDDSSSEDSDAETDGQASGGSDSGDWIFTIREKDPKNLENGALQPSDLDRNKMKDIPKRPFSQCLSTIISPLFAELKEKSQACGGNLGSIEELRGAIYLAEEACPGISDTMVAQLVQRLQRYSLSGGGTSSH
Sequence of FGR (human) (P09769 whole entry, looked up): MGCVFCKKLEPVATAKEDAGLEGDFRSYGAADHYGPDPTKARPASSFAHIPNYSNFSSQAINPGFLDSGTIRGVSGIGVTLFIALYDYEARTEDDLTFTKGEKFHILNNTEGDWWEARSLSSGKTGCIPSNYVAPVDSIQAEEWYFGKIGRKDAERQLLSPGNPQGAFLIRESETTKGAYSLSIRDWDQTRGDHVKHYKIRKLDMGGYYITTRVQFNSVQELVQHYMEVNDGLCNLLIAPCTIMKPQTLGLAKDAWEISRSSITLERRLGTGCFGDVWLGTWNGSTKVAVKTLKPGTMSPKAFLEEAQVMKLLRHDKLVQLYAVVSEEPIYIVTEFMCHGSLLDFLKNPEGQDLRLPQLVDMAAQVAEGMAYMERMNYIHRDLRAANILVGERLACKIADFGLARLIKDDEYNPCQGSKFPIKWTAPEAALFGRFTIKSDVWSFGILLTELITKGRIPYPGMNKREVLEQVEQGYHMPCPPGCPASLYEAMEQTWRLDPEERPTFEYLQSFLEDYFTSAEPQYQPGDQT
Sequence of ITK (human) (Q08881 whole entry, looked up): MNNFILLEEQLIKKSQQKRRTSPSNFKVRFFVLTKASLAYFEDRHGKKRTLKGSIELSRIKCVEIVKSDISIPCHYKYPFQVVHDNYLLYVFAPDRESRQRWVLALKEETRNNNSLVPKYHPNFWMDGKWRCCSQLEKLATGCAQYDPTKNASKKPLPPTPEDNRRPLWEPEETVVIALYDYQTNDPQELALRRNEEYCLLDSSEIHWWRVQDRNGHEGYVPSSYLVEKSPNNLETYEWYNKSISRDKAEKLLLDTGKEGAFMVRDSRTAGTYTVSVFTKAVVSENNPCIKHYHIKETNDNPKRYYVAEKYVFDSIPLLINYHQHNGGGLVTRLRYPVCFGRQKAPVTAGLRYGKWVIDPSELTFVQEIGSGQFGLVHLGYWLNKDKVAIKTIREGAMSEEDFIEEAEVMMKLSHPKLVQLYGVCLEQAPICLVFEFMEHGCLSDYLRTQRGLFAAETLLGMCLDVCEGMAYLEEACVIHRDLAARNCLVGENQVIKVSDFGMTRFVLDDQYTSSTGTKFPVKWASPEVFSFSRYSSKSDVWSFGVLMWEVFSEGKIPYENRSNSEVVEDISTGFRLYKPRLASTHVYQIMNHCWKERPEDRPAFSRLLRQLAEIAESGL
Sequence of NTRK3 (human) (Q16288 whole entry, looked up): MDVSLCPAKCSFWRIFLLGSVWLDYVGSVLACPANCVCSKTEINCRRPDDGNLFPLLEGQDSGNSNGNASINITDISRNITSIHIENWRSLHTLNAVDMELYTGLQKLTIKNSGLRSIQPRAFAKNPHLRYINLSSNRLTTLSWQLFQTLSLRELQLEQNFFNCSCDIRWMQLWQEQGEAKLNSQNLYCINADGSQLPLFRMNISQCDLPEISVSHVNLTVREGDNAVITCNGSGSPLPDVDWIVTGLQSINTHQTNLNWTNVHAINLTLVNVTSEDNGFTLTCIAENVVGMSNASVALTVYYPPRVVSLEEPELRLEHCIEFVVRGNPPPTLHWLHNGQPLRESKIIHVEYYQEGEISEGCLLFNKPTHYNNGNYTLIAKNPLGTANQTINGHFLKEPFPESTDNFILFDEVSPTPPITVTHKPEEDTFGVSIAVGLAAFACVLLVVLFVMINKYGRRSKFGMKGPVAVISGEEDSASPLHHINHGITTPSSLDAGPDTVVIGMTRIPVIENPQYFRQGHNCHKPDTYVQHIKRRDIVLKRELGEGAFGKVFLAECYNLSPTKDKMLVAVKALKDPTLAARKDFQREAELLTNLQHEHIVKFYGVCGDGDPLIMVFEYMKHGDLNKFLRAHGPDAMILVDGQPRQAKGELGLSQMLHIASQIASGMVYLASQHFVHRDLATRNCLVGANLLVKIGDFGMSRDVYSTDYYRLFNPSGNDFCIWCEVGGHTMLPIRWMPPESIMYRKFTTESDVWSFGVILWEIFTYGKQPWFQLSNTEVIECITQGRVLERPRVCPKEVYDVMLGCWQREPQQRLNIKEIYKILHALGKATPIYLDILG
Sequence of TTK (human) (P33981 whole entry, looked up): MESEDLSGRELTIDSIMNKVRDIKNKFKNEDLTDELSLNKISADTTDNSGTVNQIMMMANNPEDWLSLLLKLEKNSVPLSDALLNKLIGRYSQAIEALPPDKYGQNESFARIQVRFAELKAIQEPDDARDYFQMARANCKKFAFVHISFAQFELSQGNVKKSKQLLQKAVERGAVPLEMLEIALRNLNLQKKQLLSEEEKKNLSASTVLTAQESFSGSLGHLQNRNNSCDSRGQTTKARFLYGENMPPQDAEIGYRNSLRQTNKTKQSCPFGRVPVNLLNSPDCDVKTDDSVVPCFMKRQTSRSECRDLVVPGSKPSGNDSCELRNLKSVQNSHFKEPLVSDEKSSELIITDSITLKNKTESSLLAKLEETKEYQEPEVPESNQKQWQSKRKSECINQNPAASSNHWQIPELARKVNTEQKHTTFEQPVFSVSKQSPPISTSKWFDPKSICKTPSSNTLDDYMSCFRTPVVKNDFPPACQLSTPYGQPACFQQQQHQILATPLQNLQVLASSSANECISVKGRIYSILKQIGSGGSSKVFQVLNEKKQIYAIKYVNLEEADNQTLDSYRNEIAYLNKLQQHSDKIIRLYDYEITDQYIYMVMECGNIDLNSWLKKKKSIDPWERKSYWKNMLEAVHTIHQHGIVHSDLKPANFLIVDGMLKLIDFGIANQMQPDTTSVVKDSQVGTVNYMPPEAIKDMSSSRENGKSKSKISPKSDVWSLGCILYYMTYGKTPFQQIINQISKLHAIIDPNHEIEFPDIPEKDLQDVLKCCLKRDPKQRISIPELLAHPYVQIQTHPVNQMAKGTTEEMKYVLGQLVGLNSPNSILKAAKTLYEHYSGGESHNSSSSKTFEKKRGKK
Sequence of BMP2K (human) (Q9NSY1 whole entry, looked up): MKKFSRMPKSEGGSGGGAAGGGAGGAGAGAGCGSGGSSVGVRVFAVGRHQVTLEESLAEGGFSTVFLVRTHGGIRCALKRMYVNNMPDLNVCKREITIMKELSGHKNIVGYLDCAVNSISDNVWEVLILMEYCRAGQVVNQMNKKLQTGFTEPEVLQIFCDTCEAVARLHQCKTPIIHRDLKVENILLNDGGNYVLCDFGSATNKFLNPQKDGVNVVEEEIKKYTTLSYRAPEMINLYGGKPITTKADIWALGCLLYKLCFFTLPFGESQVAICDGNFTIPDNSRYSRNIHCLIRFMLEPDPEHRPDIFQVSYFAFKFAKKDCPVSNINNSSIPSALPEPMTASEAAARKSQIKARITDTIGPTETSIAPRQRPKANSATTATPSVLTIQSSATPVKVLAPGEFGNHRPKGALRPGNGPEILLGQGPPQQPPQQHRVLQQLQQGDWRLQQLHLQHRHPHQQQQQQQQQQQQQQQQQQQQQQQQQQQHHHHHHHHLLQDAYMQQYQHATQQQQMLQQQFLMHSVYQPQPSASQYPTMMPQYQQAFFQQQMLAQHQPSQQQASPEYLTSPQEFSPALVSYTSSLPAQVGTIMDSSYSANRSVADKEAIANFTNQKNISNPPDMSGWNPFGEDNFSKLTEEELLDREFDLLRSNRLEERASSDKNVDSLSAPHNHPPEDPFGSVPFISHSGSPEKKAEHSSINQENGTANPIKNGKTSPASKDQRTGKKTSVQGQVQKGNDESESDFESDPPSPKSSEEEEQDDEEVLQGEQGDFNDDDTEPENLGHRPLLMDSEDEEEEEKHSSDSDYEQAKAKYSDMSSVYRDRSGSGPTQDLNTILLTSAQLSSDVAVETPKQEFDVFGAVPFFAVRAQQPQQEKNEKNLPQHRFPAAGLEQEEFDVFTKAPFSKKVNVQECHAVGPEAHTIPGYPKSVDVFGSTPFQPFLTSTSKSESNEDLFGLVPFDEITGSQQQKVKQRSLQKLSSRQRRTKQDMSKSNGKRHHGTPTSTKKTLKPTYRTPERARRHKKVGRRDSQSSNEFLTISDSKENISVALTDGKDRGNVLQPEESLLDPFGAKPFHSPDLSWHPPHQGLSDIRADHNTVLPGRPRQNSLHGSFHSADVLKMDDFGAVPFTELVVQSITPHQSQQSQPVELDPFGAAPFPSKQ
Sequence of PDPK1 (human) (O15530 whole entry, looked up): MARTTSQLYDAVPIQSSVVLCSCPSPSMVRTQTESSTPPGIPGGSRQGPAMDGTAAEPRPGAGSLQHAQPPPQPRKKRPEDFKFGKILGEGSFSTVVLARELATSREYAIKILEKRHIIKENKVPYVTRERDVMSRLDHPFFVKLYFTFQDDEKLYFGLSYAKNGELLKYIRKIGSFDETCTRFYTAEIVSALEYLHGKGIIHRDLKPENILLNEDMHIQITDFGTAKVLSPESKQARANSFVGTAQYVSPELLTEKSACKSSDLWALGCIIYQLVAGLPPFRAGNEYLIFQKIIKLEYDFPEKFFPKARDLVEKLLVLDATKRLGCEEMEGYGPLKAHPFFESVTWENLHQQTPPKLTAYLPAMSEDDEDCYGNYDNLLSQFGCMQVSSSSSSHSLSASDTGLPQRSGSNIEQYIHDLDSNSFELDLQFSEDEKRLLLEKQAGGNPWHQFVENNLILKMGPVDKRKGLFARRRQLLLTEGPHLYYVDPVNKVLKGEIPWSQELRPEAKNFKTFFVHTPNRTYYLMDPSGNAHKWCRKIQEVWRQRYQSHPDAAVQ

Structure (SMILES): c1ccc(-c2n[nH]cc2-c2ccnc3ccccc23)nc1
- kinase still bound, per cent of control (MAP4K5 (human)): no effect (inactive)
- kinase still bound, per cent of control (STK16 (human)): no effect (inactive)
- kinase still bound, per cent of control (TNNI3K (human)): no effect (inactive)
- kinase still bound, per cent of control [1]: no effect (inactive)
- kinase still bound, per cent of control (BRAF (human)): no effect (inactive)
- kinase still bound, per cent of control (PKN2 (human)): no effect (inactive)
- kinase still bound, per cent of control (FER (human)): no effect (inactive)
- kinase still bound, per cent of control (RET (human)): no effect (inactive)
- kinase still bound, per cent of control (KIT (human)): no effect (inactive)
- kinase still bound, per cent of control (CSNK1G1 (human)): no effect (inactive)
- kinase still bound, per cent of control (PDGFRA (human)): no effect (inactive)
- kinase still bound, per cent of control (MAP3K11 (human)): no effect (inactive)
- kinase still bound, per cent of control (TTK (human)): no effect (inactive)
- kinase still bound, per cent of control (ITK (human)): no effect (inactive)
- kinase still bound, per cent of control (STK17B (human)): no effect (inactive)
- kinase still bound, per cent of control (FRK (human)): no effect (inactive)
- kinase still bound, per cent of control (STK24 (human)): no effect (inactive)
- kinase still bound, per cent of control (AAK1 (human)): no effect (inactive)
- kinase still bound, per cent of control (NTRK3 (human)): no effect (inactive)
- kinase still bound, per cent of control (NLK (human)): no effect (inactive)
- kinase still bound, per cent of control (MAPK8 (human)): no effect (inactive)
- kinase still bound, per cent of control (AURKB (human)): no effect (inactive)
- kinase still bound, per cent of control (FGR (human)): no effect (inactive)
- kinase still bound, per cent of control (SYK (human)): no effect (inactive)
- kinase still bound, per cent of control (EPHA1 (human)): no effect (inactive)
- kinase still bound, per cent of control (CAMK2A (human)): no effect (inactive)
- kinase still bound, per cent of control (SLK (human)): no effect (inactive)
- kinase still bound, per cent of control (BLK (human)): no effect (inactive)
- kinase still bound, per cent of control (EPHA5 (human)): no effect (inactive)
- kinase still bound, per cent of control (FLT3 (human)): no effect (inactive)
- kinase still bound, per cent of control (PLK4 (human)): no effect (inactive)
- kinase still bound, per cent of control (MST4 (human)): no effect (inactive)
- kinase still bound, per cent of control (BMP2K (human)): no effect (inactive)
- kinase still bound, per cent of control (PDPK1 (human)): no effect (inactive)
- kinase still bound, per cent of control (EPHB1 (human)): no effect (inactive)
- kinase still bound, per cent of control (MARK2 (human)): no effect (inactive)
- kinase still bound, per cent of control (ACVR1 (human)): no effect (inactive)

Structure (SMILES): CC(=O)c1c(-c2ccncc2)[nH]c(-c2ccncc2)c1C
- kinase still bound, per cent of control (MAP4K5 (human)): no effect (inactive)
- kinase still bound, per cent of control (TNNI3K (human)): no effect (inactive)
- kinase still bound, per cent of control [1]: no effect (inactive)
- kinase still bound, per cent of control (BRAF (human)): no effect (inactive)
- kinase still bound, per cent of control (PKN2 (human)): no effect (inactive)
- kinase still bound, per cent of control (ABL1 (human)): no effect (inactive)
- kinase still bound, per cent of control (FER (human)): no effect (inactive)
- kinase still bound, per cent of control (RET (human)): no effect (inactive)
- kinase still bound, per cent of control (KIT (human)): no effect (inactive)
- kinase still bound, per cent of control (CSNK1G1 (human)): 0%
- kinase still bound, per cent of control (PDGFRA (human)): no effect (inactive)
- kinase still bound, per cent of control (MAP3K11 (human)): no effect (inactive)
- kinase still bound, per cent of control (TTK (human)): no effect (inactive)
- kinase still bound, per cent of control (ITK (human)): no effect (inactive)
- kinase still bound, per cent of control (FRK (human)): no effect (inactive)
- kinase still bound, per cent of control (ACVR2A (human)): no effect (inactive)
- kinase still bound, per cent of control (STK24 (human)): no effect (inactive)
- kinase still bound, per cent of control (NTRK3 (human)): no effect (inactive)
- kinase still bound, per cent of control (NLK (human)): no effect (inactive)
- kinase still bound, per cent of control (AURKB (human)): no effect (inactive)
- kinase still bound, per cent of control (FGR (human)): no effect (inactive)
- kinase still bound, per cent of control (SYK (human)): no effect (inactive)
- kinase still bound, per cent of control (EPHA1 (human)): no effect (inactive)
- kinase still bound, per cent of control (SLK (human)): no effect (inactive)
- kinase still bound, per cent of control (BLK (human)): no effect (inactive)
- kinase still bound, per cent of control (EPHA5 (human)): no effect (inactive)
- kinase still bound, per cent of control (FLT3 (human)): no effect (inactive)
- kinase still bound, per cent of control (PLK4 (human)): no effect (inactive)
- kinase still bound, per cent of control (MST4 (human)): no effect (inactive)
- kinase still bound, per cent of control (BMP2K (human)): no effect (inactive)
- kinase still bound, per cent of control (PDPK1 (human)): no effect (inactive)
- kinase still bound, per cent of control (EPHB1 (human)): no effect (inactive)
- kinase still bound, per cent of control (MARK2 (human)): no effect (inactive)
- kinase still bound, per cent of control (ABL2 (human)): no effect (inactive)
- kinase still bound, per cent of control (ACVR1 (human)): no effect (inactive)
- kinase still bound, per cent of control (CSNK1A1L (human)): 0%

Structure (SMILES): CCS(=O)(=O)Nc1ccc2c(c1)[C@H](/C(=N/c1ccc(CN3CCCCC3)cc1)c1ccccc1)C(=O)N2
- kinase still bound, per cent of control (MAP4K5 (human)): 0%
- kinase still bound, per cent of control (STK16 (human)): 0%
- kinase still bound, per cent of control (TNNI3K (human)): 7.6%
- kinase still bound, per cent of control [1]: 0%
- kinase still bound, per cent of control (BRAF (human)): no effect (inactive)
- kinase still bound, per cent of control (PKN2 (human)): 3%
- kinase still bound, per cent of control (ABL1 (human)): 0.6%
- kinase still bound, per cent of control (FER (human)): 0%
- kinase still bound, per cent of control (RET (human)): 0%
- kinase still bound, per cent of control (KIT (human)): 0.1%
- kinase still bound, per cent of control (CSNK1G1 (human)): no effect (inactive)
- kinase still bound, per cent of control (PDGFRA (human)): 0.8%
- kinase still bound, per cent of control (MAP3K11 (human)): 12.3%
- kinase still bound, per cent of control (TTK (human)): 0%
- kinase still bound, per cent of control (ITK (human)): 0.1%
- kinase still bound, per cent of control (STK17B (human)): 0.1%
- kinase still bound, per cent of control (FRK (human)): 0.5%
- kinase still bound, per cent of control (ACVR2A (human)): 22.7%
- kinase still bound, per cent of control (STK24 (human)): 0.1%
- kinase still bound, per cent of control (AAK1 (human)): 0.1%
- kinase still bound, per cent of control (NTRK3 (human)): 0%
- kinase still bound, per cent of control (NLK (human)): no effect (inactive)
- kinase still bound, per cent of control (MAPK8 (human)): 0%
- kinase still bound, per cent of control (AURKB (human)): 0%
- kinase still bound, per cent of control (FGR (human)): 0.1%
- kinase still bound, per cent of control (SYK (human)): 1.3%
- kinase still bound, per cent of control (EPHA1 (human)): 0.2%
- kinase still bound, per cent of control (CAMK2A (human)): 0.5%
- kinase still bound, per cent of control (SLK (human)): 0%
- kinase still bound, per cent of control (BLK (human)): 0%
- kinase still bound, per cent of control (EPHA5 (human)): 0%
- kinase still bound, per cent of control (FLT3 (human)): 0%
- kinase still bound, per cent of control (PLK4 (human)): 0%
- kinase still bound, per cent of control (MST4 (human)): 17.2%
- kinase still bound, per cent of control (BMP2K (human)): 0%
- kinase still bound, per cent of control (PDPK1 (human)): 5.8%
- kinase still bound, per cent of control (EPHB1 (human)): 0%
- kinase still bound, per cent of control (MARK2 (human)): 0.3%
- kinase still bound, per cent of control (ABL2 (human)): 4.8%
- kinase still bound, per cent of control (ACVR1 (human)): 0.1%
- kinase still bound, per cent of control (CSNK1A1L (human)): no effect (inactive)
